One data set relates to PTZ induced seizures. The data set is described as follows: Timed intravenous PTZ infusion test (ivPTZ). Format: in vivo, mice. An excerpt: For investigation of anti-seizure activity of invented formulations, a timed intravenous PTZ infusion test was employed.
The technique of timed i.v. PTZ (pentylenetetrazole) infusion test (ivPTZ) is a simple, reproducible and fast method for assessment of onset, peak, duration and potency of various anticonvulsants and proconvulsants in animals. This test provides an extremely sensitive parametric method for assessing seizure threshold in individual animals and a quantifiable endpoint can be obtained with a minimal number of animals. Different seizure types can be chosen as endpoint in this test. Usually, the first seizure occurring during the PTZ infusion is a myoclonic twitch, followed by clonic and, later, tonic seizures.
This method offers many advantages over the more widely used classical subcutaneous PTZ (scPTZ) test. Since with ivPTZ, test effects based on different endpoints are measured in individual animals, the number of animals required for a proper evaluation is much lower than would be needed for standard scPTZ test. […]
During the infusion, mice are observed for the onset of different types of seizures. The time latencies from the start of infusion to the appearance of the first clonus (characterized by rapid involuntary rhythmic contraction and relaxation of limbs), lasting longer than 5 seconds, are recorded. […]

How the values of data set [1] were obtained:
After combining of pre-weighed amounts of components they were gently triturated at room temperature (20-22° C.) using a stainless steel spatula until liquid phase is formed.

A further data set has as its system seizures. The note with it: intranasal, human patients; cited from earlier work.

Like-named read-outs stand apart in the source and are kept apart here.

Compound `O=C1Nc2ccc(Cl)cc2C(c2ccccc2Cl)=NC1O` (centres unmarked) [Lorazepam] displayed a PTZ dose threshold in the data set with PTZ induced seizures (intraperitoneal 2.5 mg/kg, 5 minutes time point, infusion 0.3 ml/min, PTZ 10 mg/ml) of 100 to 120 mg/kg. Also, in the data set with PTZ induced seizures (parenterally administered), the “time of maximal protection” value is on record as “approximately 5 minutes”. For the same compound, the increase of solubility in data set [1] (MCT oil + 5% Menthol by weight vs pure MCT oil) is given as 28%; in data set [1] (MCT with 8% Menthol vs pure MCT oil), about 60%.
Consider `Cc1ncc2n1-c1ccc(Cl)cc1C(c1ccccc1F)=NC2` [Midazolam], for which the onset of action entry in the data set with seizures is “approximately 10 minutes”.

The values above are taken from patent US20160000803A1, “PHARMACEUTICAL COMPOSITION FOR TRANSMUCOSAL ADMINISTRATION OF BENZODIAZEPINES” (EASTGATE PHARMACEUTICALS INC., priority 2013, published 2016).
